The numbers were not newly measured in article PMC10485887, “PET Evaluation of the Novel F-18 Labeled Reversible Radioligand [^18F]GEH200449 for Detection of Monoamine Oxidase-B in the Non-Human Primate Brain” (ACS Chemical Neuroscience, 2023), which cites them from elsewhere.

This series relates to MAO-B. Details: method as in PMID 33284012. To be noted: autoradiography; cited from earlier work.

`O=c1ccoc2ccc(OCc3ccc([18F])nc3)cc12` [[^18F]GEH200449]: the “binding in human brain tissue” value is on record as “specific binding to MAO-B” and the “non-specific binding in human brain tissue” value was “low”.
